Among the test systems are SK-OV-3; SK-MEL-28; SK-MEL-5; A498; HCC 2998; UACC-257; SNB-19; CAKI-1; HL-60; NCI/ADR-RES; UO-31; BT-549; OVCAR-3; SR; CCRF-CEM; SW-620; NCI-H226; SN12C; RXF 393; NCI-H522.
Holding throughout (assay): NCI anticancer screen, dose series, 48 h

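Following 48 hours of exposure in 96-well plates, responses at five concentrations were used to interpolate endpoints linearly. Abbreviation: GI50, concentration required for 50% inhibition of growth.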 The source made the active and inactive calls. Cut-off read from the data, not from the text of the source: active = GI50 up to about 1.1 µM and inactive = higher.

Regarding `CCOC(=O)N1C(=S)C(C(=O)OC)(C(=O)OC)N=C1C`, the GI50 with SK-OV-3, with SK-MEL-28, with SK-MEL-5, with A498, in the assay on HCC 2998 and with UACC-257 was > 100 µM (inactive) in each case. The GI50 with SNB-19, in the assay with CAKI-1, in the assay on HL-60, in the assay on NCI/ADR-RES, in the assay with UO-31 and in the assay with BT-549 was > 100 µM (inactive) in each case. Moreover, the GI50 in the assay with OVCAR-3, with SR, in the assay on CCRF-CEM, in the assay with SW-620, in the assay on NCI-H226 and in the assay with SN12C was > 100 µM (inactive) each time. Further, the GI50 in the assay on RXF 393 is > 100 µM (inactive).

Consider `O=C1NC(=O)[C@H]2C3C=CC([C@@H]12)[C@@H]1C(=O)NC(=O)[C@H]31`, for which the GI50 in the assay on SK-MEL-28, in the assay on SK-MEL-5, with HCC 2998, in the assay with UACC-257, with SNB-19 and with CAKI-1 was > 100 µM (inactive) each time. Besides, the GI50 in the assay with HL-60, in the assay on NCI-H522, in the assay on NCI/ADR-RES, with UO-31, in the assay with BT-549 and with OVCAR-3 was > 100 µM (inactive) each time. In addition, the GI50 in the assay on SR, in the assay with CCRF-CEM, in the assay on SW-620, in the assay with NCI-H226, with SN12C and with RXF 393 was > 100 µM (inactive) each time.

In the case of `O=C(O)c1cc2ccccc2c(/N=N/c2ccc(S(=O)(=O)O)cc2)c1O`, the GI50 was > 100 µM (inactive) in the assay with SK-OV-3; > 100 µM (inactive) in the assay on SK-MEL-28; > 100 µM (inactive) with SK-MEL-5; > 100 µM (inactive) with HCC 2998; > 100 µM (inactive) with UACC-257; 0.0264 µM (active) in the assay on SNB-19. Further, the GI50 is > 100 µM (inactive) in the assay with CAKI-1; > 100 µM (inactive) in the assay with HL-60; > 100 µM (inactive) with NCI-H522; > 100 µM (inactive) in the assay on NCI/ADR-RES; 60.3 µM (inactive) in the assay on UO-31; > 100 µM (inactive) in the assay on BT-549. Further, the GI50 in the assay with OVCAR-3, in the assay on SR, with CCRF-CEM, with SW-620, in the assay on NCI-H226 and with SN12C was > 100 µM (inactive) each time. Further, in the assay with RXF 393, the GI50 was > 100 µM (inactive).

For `C=C1C(=O)O[C@H]2[C@H]([C@H](C)CCCC(C)=O)O[C@H]([C@@]3(C)CCC(=O)O3)C[C@@H]12`, the GI50 in the assay on SK-OV-3 was > 100 µM (inactive); in the assay with SK-MEL-28, > 100 µM (inactive); in the assay with SK-MEL-5 it was > 100 µM (inactive); with A498 it was > 100 µM (inactive); in the assay on HCC 2998, 68.1 µM (inactive); in the assay with UACC-257 it was 77.1 µM (inactive). Moreover, the GI50 is > 100 µM (inactive) in the assay with SNB-19; 18.3 µM (inactive) with CAKI-1; 41.7 µM (inactive) in the assay on HL-60; 26.4 µM (inactive) in the assay with NCI-H522; > 100 µM (inactive) in the assay with NCI/ADR-RES; > 100 µM (inactive) with UO-31. The GI50 in the assay with BT-549 was 31.8 µM (inactive); in the assay on OVCAR-3 it was 56.1 µM (inactive); in the assay on SR, 55.6 µM (inactive); in the assay with CCRF-CEM it was 26.9 µM (inactive); in the assay with SW-620, 46.3 µM (inactive); with NCI-H226 it was 31.3 µM (inactive). Besides, the GI50 in the assay on SN12C is 92 µM (inactive).

Regarding `N#C/C(N)=C(C#N)/N=C/NCCO`, the GI50 with SK-OV-3, with SK-MEL-28, in the assay on SK-MEL-5, in the assay with A498, in the assay on HCC 2998 and in the assay on UACC-257 was > 100 µM (inactive) in each case. The GI50 in the assay with SNB-19, in the assay on CAKI-1, in the assay on HL-60, with NCI-H522, in the assay with NCI/ADR-RES and in the assay with UO-31 was > 100 µM (inactive) each time. Besides, the GI50 in the assay with BT-549, with OVCAR-3, in the assay with SR, in the assay with CCRF-CEM, in the assay on SW-620 and in the assay with NCI-H226 was > 100 µM (inactive) throughout. Also, the GI50 in the assay on SN12C is > 100 µM (inactive).

In the case of `CN(C)CCCNC(=O)c1cc(NC(=O)c2cc(NC(=O)c3cc(NC(=O)CCCn4ccc(CO)c4CO)cn3C)cn2C)cn1C`, the GI50 is 1.06 µM (active) with SK-OV-3; 11.4 µM (inactive) in the assay with SK-MEL-28; 2.71 µM (inactive) in the assay on SK-MEL-5; 63.5 µM (inactive) with HCC 2998; 2.9 µM (inactive) in the assay on SNB-19; > 100 µM (inactive) in the assay with CAKI-1. For the same compound, the GI50 with HL-60 was 3.1 µM (inactive); in the assay on NCI-H522 it was 2.37 µM (inactive); with NCI/ADR-RES it was > 100 µM (inactive); in the assay on UO-31, > 100 µM (inactive); in the assay with BT-549 it was 2.64 µM (inactive); in the assay with OVCAR-3, 10.9 µM (inactive). Moreover, the GI50 was 6.5 µM (inactive) in the assay with SR; 3.73 µM (inactive) with CCRF-CEM; 20.6 µM (inactive) in the assay on SW-620; 2.97 µM (inactive) with NCI-H226; 6.18 µM (inactive) with SN12C; 1.85 µM (inactive) in the assay with RXF 393.

For `Cc1ccc(Nc2nc3ccccc3c(=O)n2N)cc1`, the GI50 in the assay with SK-OV-3, in the assay on SK-MEL-28, with SK-MEL-5, with HCC 2998, in the assay on UACC-257 and in the assay with SNB-19 was > 100 µM (inactive) in each case. Moreover, the GI50 in the assay on CAKI-1, in the assay on HL-60, in the assay on NCI-H522, with NCI/ADR-RES, in the assay on UO-31 and in the assay with BT-549 was > 100 µM (inactive) each time. Besides, the GI50 with OVCAR-3, in the assay on SR, with CCRF-CEM, with SW-620, with NCI-H226 and with SN12C was > 100 µM (inactive) in each case. Besides, the GI50 in the assay on RXF 393 is > 100 µM (inactive).

Consider `C/C(=C/CC[C@](C)(OC1OC(CO)C(O)C(O)C1O)[C@H]1CC[C@]2(C)[C@@H]1CC[C@@H]1[C@@]3(C)CC[C@H](O)C(C)(C)[C@@H]3C[C@H](O)[C@]12CO)CO` (some centres not stated), for which the GI50 in the assay on SK-OV-3, in the assay with SK-MEL-28, in the assay on SK-MEL-5, with A498, with UACC-257 and in the assay on SNB-19 was > 100 µM (inactive) throughout. Moreover, the GI50 in the assay with CAKI-1, with HL-60, in the assay on NCI-H522, with NCI/ADR-RES, in the assay on UO-31 and in the assay with BT-549 was > 100 µM (inactive) each time. The GI50 in the assay on OVCAR-3, in the assay with SR, with CCRF-CEM, in the assay with SW-620, in the assay on NCI-H226 and in the assay on SN12C was > 100 µM (inactive) each time. Besides, the GI50 with RXF 393 is > 100 µM (inactive).

Regarding `COC(=O)c1ccc(NC(=O)c2cc3c(cc2Br)OCO3)o1`, the GI50 with SK-OV-3, with SK-MEL-28, in the assay on SK-MEL-5, in the assay with A498, with HCC 2998 and in the assay with UACC-257 was > 100 µM (inactive) each time. Moreover, the GI50 is > 100 µM (inactive) in the assay with SNB-19; > 100 µM (inactive) in the assay with CAKI-1; > 100 µM (inactive) with HL-60; 15.7 µM (inactive) in the assay on NCI-H522; 59 µM (inactive) with NCI/ADR-RES; > 100 µM (inactive) in the assay on UO-31. For the same compound, the GI50 in the assay with BT-549 is 39.5 µM (inactive); in the assay on OVCAR-3, > 100 µM (inactive); in the assay on SR, 41.4 µM (inactive); in the assay on CCRF-CEM, > 100 µM (inactive); in the assay with SW-620, > 100 µM (inactive); in the assay with NCI-H226, > 100 µM (inactive). Also, in the assay with SN12C, the GI50 is > 100 µM (inactive).

In the case of `CCCCCCCCCCCCCCCCNC(=O)/C(=C\c1ccc(Cl)c(Cl)c1)NC(=O)c1ccccc1`, the GI50 in the assay on SK-OV-3 is 53 µM (inactive); with SK-MEL-28, 70.1 µM (inactive); with SK-MEL-5 it was > 100 µM (inactive); in the assay on A498, 19.9 µM (inactive); in the assay with UACC-257 it was > 100 µM (inactive); with SNB-19, 46.3 µM (inactive). The GI50 in the assay with CAKI-1 was 66.7 µM (inactive); with HL-60 it was 0.431 µM (active); with NCI-H522, 37.2 µM (inactive); in the assay with NCI/ADR-RES it was 48.3 µM (inactive); in the assay with UO-31 it was 42 µM (inactive); in the assay with BT-549 it was > 100 µM (inactive). Besides, the GI50 was > 100 µM (inactive) in the assay on OVCAR-3; 18.2 µM (inactive) in the assay with SR; 31.7 µM (inactive) with SW-620; 23.6 µM (inactive) with NCI-H226; 25.8 µM (inactive) in the assay with SN12C; 15.7 µM (inactive) in the assay on RXF 393.
